≈ marks a conversion by molar mass, not a printed value.
Legend:
[1] = tested on: human breast adenocarcinoma (MCF-7); assay: Cytotoxic screening; assay type: cell-based; conditions: Homo sapiens, MCF7; read-out: IC50 MCF-7
Procedure: (§1) Human colon carcinoma (HCT-116), human hepatocellular carcinoma (HEPG-2), adenocarcinomic human alveolar basal epithelial cell (A-549), and human breast adenocarcinoma (MCF-7) cell lines were obtained from the American Type Culture Collection (ATCC, Rockville, MD). The cells were grown on RPMI-1640 medium supplemented with 10 % inactivated fetal calf serum and 50 µg/ml gentamycin. The cells were maintained at 37 °C in a humidified atmosphere with 5 % CO2 and were subcultured two to three times a week. Potential cytotoxicity of the compounds was evaluated on tumor cells using the method of Gangadevi and Muthumary (2007[21]) (Klancnik et al., 2010[36]). The cells were grown as monolayers in growth RPMI-1640. The monolayers of 104 cells adhered at the bottom of the wells in a 96-well microtiter plate incubated for 24 h at 37 °C in a humidified incubator with 5 % CO2. The monolayers were then washed with sterile phosphate buffered saline (0.01 M pH 7.2) and simultaneously the cells were treated with 100 µL from different dilutions of tested sample in fresh maintenance medium and incubated at 37 °C. A control of untreated cells was made in the absence of tested sample. Positive controls containing doxorubicin were also tested as a reference drug for comparison. Six wells were used for each concentration of the test sample. Every 24 hours an observation under the inverted microscope was made. The number of the surviving cells was determined by staining the cells with crystal violet (Mosmann, 1983[42]; Gangadevi and Muthumary, 2007[21]) followed by cell lysing using 33 % glacial acetic acid and reading the absorbance at 590 nm using microplate reader (SunRise, TECAN, Inc, USA) after well mixing. The absorbance values from untreated cells were considered as 100 % proliferation. The number of viable cells was determined using microplate reader as previously mentioned before and the percentage of […] was calculated as [1-(ODt/ODc)] x 100 % where ODt is the mean optical density of wells treated with the tested sample and ODc is the mean optical density of untreated cells. The relation between surviving cells and drug concentration was plotted to get the survival curve of each tumor cell line after treatment with the specified compound. The 50 % inhibitory concentration (IC50), the concentration required to cause toxic effects in 50 % of intact cells, was estimated from graphic plots.
(§2) The in vitro cytotoxic activity was performed by MTT assay (Mosmann, 1983[42]; Alley et al., 1988[6]) against three human carcinoma cell lines: Human colon carcinoma (HCT-116), human breast adenocarcinoma (MCF-7), and human hepatocellular carcinoma (HEPG-2).

[2] = tested on: Human colon carcinoma (HCT-116); assay: Cytotoxic screening; assay type: cell-based; conditions: Homo sapiens, HCT-116; read-out: IC50 HCT-116
Procedure: as §1, §2

[3] = tested on: human hepatocellular carcinoma (HEPG-2); assay: Cytotoxic screening; assay type: cell-based; conditions: HepG2, read-out: IC50 HepG-2
Procedure: as §1, §2

[4] = tested on: Bacillus subtilis (RCMB 010067); assay: MIC by serial dilution method; assay type: cell-based; conditions: RCMB010067, Gm+ve, read-out: Minimum inhibitory concentration, MIC, B.S
Procedure: (§3) All the newly synthesized compounds described in this report were screened for both antibacterial and antifungal activity via the reported agar diffusion well method (Vanden Berghe and Vlietinck, 1991[62]). The inhibition zones and minimum inhibitory concentrations (MIC) were determined by the serial dilution method (Cappuccino and Sherman, 1999[12]). The antimicrobial activity of the synthesized compounds was tested against a broad panel of microorganisms including two Gram-positive bacteria: Streptococcus pneumoniae (RCMB 010010) and Bacillus subtilis (RCMB 010067), two Gram-negative bacteria: Pseudomonas aeruginosa (RCMB 010043) and Escherichia coli (RCMB 010052), and four fungi: Aspergillus fumigatus (RCMB 02568), Syncephalastrum racemosum (RCMB 05922), Geotricum candidum (RCMB 05097), and Candida albicans (RCMB 05036). Ampicillin, ciprofloxacin, gentamicin and amphotericin B were used as positive control drugs (Atta-ur-Rahman and Thomsen, 2001[7]; Smania et al., 1999[57]). […] While in the case of Gm-ve bacteria, they had weak activity. In addition, certain strains of fungi were sensitive to tested compounds with an IZ range from 12-25 except Candida albicans.

[5] = tested on: Pseudomonas aeruginosa (RCMB 010043); assay: MIC by serial dilution method; assay type: cell-based; conditions: RCMB010043, Gm-ve, read-out: Minimum inhibitory concentration, MIC, P.A
Procedure: as §3

[6] = tested on: Escherichia coli (RCMB 010052); assay: MIC by serial dilution method; assay type: cell-based; conditions: RCMB010052, Gm-ve, read-out: Minimum inhibitory concentration, MIC, E.C
Procedure: as §3

[7] = tested on: Streptococcus pneumoniae (RCMB 010010); assay: MIC by serial dilution method; assay type: cell-based; conditions: RCMB010010, Gm+ve, read-out: Minimum inhibitory concentration, MIC, S.P
Procedure: as §3

[8] = tested on: Syncephalastrum racemosum (RCMB 05922); assay: MIC by serial dilution method; assay type: cell-based; conditions: RCMB05922, fungi, read-out: Minimum inhibitory concentration, MIC, S.R
Procedure: as §3

[9] = tested on: Geotricum candidum (RCMB 05097); assay: MIC by serial dilution method; assay type: cell-based; conditions: fungi; read-out: Minimum inhibitory concentration, MIC, G.C
Procedure: as §3

[10] = tested on: Aspergillus fumigatus (RCMB 02568); assay: MIC by serial dilution method; assay type: cell-based; conditions: RCMB02568, fungi, read-out: Minimum inhibitory concentration, MIC, A.F
Procedure: as §3

[11] = tested on: Bacillus subtilis (RCMB 010067); assay: Well diffusion assay (inhibition zone); assay type: cell-based; conditions: RCMB010067, 5 mg/mL in DMSO, Gm+ve, read-out: Inhibition Zone (IZ) diameter, B.S
Procedure: (§4) The microorganism inoculums were uniformly spread using sterile cotton swabs on a sterile Petri dish malt extract agar (for fungi) and nutrient agar (for bacteria). One hundred cubic millimeters of each sample was added to each well (10 mm-diameter holes were cut in the agar gel, 20 mm apart from one another). The systems were incubated for 24-48 h at 37 °C (for bacteria) and at 28 °C (for fungi). After incubation, the microorganism growth was observed. Inhibition zones of the bacterial and fungal growth were measured in millimeters. Tests were performed in triplicate (Cappuccino and Sherman, 1999[12]; Vanden Berghe and Vlientinck, 1991[62]).
as §3

[12] = tested on: Pseudomonas aeruginosa (RCMB 010043); assay: Well diffusion assay (inhibition zone); assay type: cell-based; conditions: RCMB010043, 5 mg/mL in DMSO, Gm-ve, read-out: Inhibition Zone (IZ) diameter, P.A
Procedure: as §4, §3

[13] = tested on: Escherichia coli (RCMB 010052); assay: Well diffusion assay (inhibition zone); assay type: cell-based; conditions: RCMB010052, 5 mg/mL in DMSO, Gm-ve, read-out: Inhibition Zone (IZ) diameter, E.C
Procedure: as §4, §3

[14] = tested on: Streptococcus pneumoniae (RCMB 010010); assay: Well diffusion assay (inhibition zone); assay type: cell-based; conditions: RCMB010010, 5 mg/mL in DMSO, Gm+ve, read-out: Inhibition Zone (IZ) diameter, S.P
Procedure: as §4, §3

[15] = tested on: Syncephalastrum racemosum (RCMB 05922); assay: Well diffusion assay (inhibition zone); assay type: cell-based; conditions: RCMB05922, 5 mg/mL in DMSO, fungi, read-out: Inhibition Zone (IZ) diameter, S.R
Procedure: as §4, §3

[16] = tested on: Geotricum candidum (RCMB 05097); assay: Well diffusion assay (inhibition zone); assay type: cell-based; conditions: 5 mg/mL in DMSO; fungi; read-out: Inhibition Zone (IZ) diameter, G.C
Procedure: as §4, §3

[17] = tested on: Aspergillus fumigatus (RCMB 02568); assay: Well diffusion assay (inhibition zone); assay type: cell-based; conditions: RCMB02568, 5 mg/mL in DMSO, fungi, read-out: Inhibition Zone (IZ) diameter, A.F
Procedure: as §4, §3

HCT-116, MCF-7, HEPG-2 = assay: Cytotoxic screening, statements over the three cell lines; assay type: cell-based; conditions: Homo sapiens; HCT-116, MCF-7, HEPG-2 together; read-out: IC50, range over the three cell lines
Procedure: as §1, §2

Row | Structure (SMILES) | IC50 [1] [µg/mL] | IC50 [2] [µg/mL] | IC50 [3] [µg/mL] | MIC [4] [µg/mL] | MIC [5] [µg/mL] | MIC [6] [µg/mL] | MIC [7] [µg/mL] | MIC [8] [µg/mL] | MIC [9] [µg/mL] | MIC [10] [µg/mL] | melting point [°C] | zone of inhibition at 5000 µg/mL [11] [mm] | zone of inhibition at 5000 µg/mL [12] [mm] | zone of inhibition at 5000 µg/mL [13] [mm] | zone of inhibition at 5000 µg/mL [14] [mm] | zone of inhibition at 5000 µg/mL [15] [mm] | zone of inhibition at 5000 µg/mL [16] [mm] | zone of inhibition at 5000 µg/mL [17] [mm] | IC50 (HCT-116, MCF-7, HEPG-2) [µg/mL]
1 | N#CC1=C(N)Oc2cc(O)c(N=Nc3ccc(C(=O)O)cc3)cc2C1c1ccccc1F (stereo not shown) [13e, 4-[2-Amino-3-cyano-4-(2-fluoro-phenyl)-7-hydroxy-4H-chromen-6-ylazo]-benzoic acid] | 27.9 (≈ 64.8 µM) | 46.7 (≈ 109 µM) | 20.5 (≈ 47.6 µM) | 0.06 (≈ 0.139 µM) | 3.9 (≈ 9.06 µM) | 3.9 (≈ 9.06 µM) | 0.12 (≈ 0.279 µM) | 3.9 (≈ 9.06 µM) | 0.49 (≈ 1.14 µM) | 0.98 (≈ 2.28 µM) | 243 | 25.2 | 19.3 | 19.3 | 23.6 | 19.3 | 21.8 | 21.3 | 
2 | CC(C)(C)c1ccc(C2C(C#N)=C(N)Oc3cc(O)c(N=Nc4ccc(O)cc4)cc32)cc1 (stereo not shown) [13i, 2-Amino-4-(4-tert-butyl-phenyl)-7-hydroxy-6-(4-hydroxy-phenylazo)-4H-chromene-3-carbonitrile] | 47 (≈ 107 µM) | 75.7 (≈ 172 µM) | 31.6 (≈ 71.7 µM) | 0.12 (≈ 0.272 µM) | 15.6 (≈ 35.5 µM) | 3.9 (≈ 8.85 µM) | 0.24 (≈ 0.545 µM) | 15.6 (≈ 35.5 µM) | 0.98 (≈ 2.22 µM) | 3.9 (≈ 8.85 µM) | 255 | 22.4 | 16.2 | 17.2 | 21.3 | 19.2 | 20.3 | 17.3 | 
3 | N#CC1=C(N)Oc2cc(O)c(N=Nc3ccc(O)cc3)cc2C1c1ccccc1F (stereo not shown) [13j, 2-Amino-4-(2-fluoro-phenyl)-7-hydroxy-6-(4-hydroxy-phenylazo)-4H-chromene-3-carbonitrile] | 44 (≈ 109 µM) | 49.1 (≈ 122 µM) | 47.2 (≈ 117 µM) | 0.49 (≈ 1.22 µM) | 31.2 (≈ 77.7 µM) | 3.9 (≈ 9.69 µM) | 0.98 (≈ 2.44 µM) | 3.9 (≈ 9.69 µM) | 0.98 (≈ 2.44 µM) | 0.98 (≈ 2.44 µM) | 260 | 21.9 | 16.3 | 19.8 | 21 | 18.7 | 21.2 | 20.6 | 
4 | N#CC1=C(N)Oc2cc(O)c(N=Nc3cccc(O)c3)cc2C1c1ccccc1F (stereo not shown) [13k, 2-Amino-4-(2-fluoro-phenyl)-7-hydroxy-6-(3-hydroxy-phenylazo)-4H-chromene-3-carbonitrile] | 44.1 (≈ 110 µM) | 71.4 (≈ 177 µM) | 41.8 (≈ 104 µM) | 0.49 (≈ 1.22 µM) | 31.2 (≈ 77.7 µM) | 15.6 (≈ 38.8 µM) | 0.98 (≈ 2.44 µM) | 3.9 (≈ 9.69 µM) | 1.95 (≈ 4.85 µM) | 15.6 (≈ 38.8 µM) | 280 | 24.3 | 17.1 | 18.6 | 22.6 | 17.1 | 21.3 | 19.4 | 
5 | Nc1cccc2c(O)cccc12 [compound 5, 5-amino-1-naphthol] | 8.88 (≈ 55.8 µM) | 11.5 (≈ 72.2 µM) | 15.2 (≈ 95.5 µM) |  |  |  |  |  |  |  |  | 18.9 |  | 17.2 | 16.3 | 14.5 | 19.5 | 18.3 | 9 to 15 (≈ 56.5 to 94.2 µM)

From article PMC5547389, “Structure-activity relationships and molecular docking studies of chromene and chromene based azo chromophores: A novel series of potent antimicrobial and anticancer agents” (EXCLI Journal, 2017)
